The text below walks through data of the NIST ThermoML archive (doi:10.1016/j.jct.2008.12.018).

A short description of the series: activity coefficient (dimensionless); of the first substance listed, at infinite dilution; xn = mol fraction of the nth substance listed. As to conditions: Liquid, Chromatography, x1 = 0.

± gives the expanded uncertainty stated by the source.

For the compound `Cc1ccccc1C` [1,2-dimethylbenzene] + CCCCn1cc[n+](C)c1.N#C[S-], the activity coefficient (298.15 K) worked out at 4.58 ± 0.31; the activity coefficient (308.15 K) was 4.64 ± 0.32; the activity coefficient (318.15 K) was found to be 4.71 ± 0.32; the activity coefficient (328.15 K) came to 4.69 ± 0.32; the activity coefficient (338.15 K) was 4.71 ± 0.32; the activity coefficient (348.15 K) came out at 4.75 ± 0.32. In addition, the activity coefficient by setting is: (358.15 K) 4.78 ± 0.33; (368.15 K) 4.81 ± 0.33.

For `Cc1cccc(C)c1` [1,3-dimethylbenzene] + CCCCn1cc[n+](C)c1.N#C[S-], the activity coefficient (298.15 K) came out at 5.92 ± 0.4; the activity coefficient (308.15 K) amounted to 5.91 ± 0.4; the activity coefficient (318.15 K) came out at 5.98 ± 0.41; the activity coefficient (328.15 K) was 5.96 ± 0.41; the activity coefficient (338.15 K) was 5.96 ± 0.41; the activity coefficient (348.15 K) was determined as 5.97 ± 0.41. Moreover, the activity coefficient came to 5.99 ± 0.41 (358.15 K) and 5.96 ± 0.41 (368.15 K).

On to `Cc1ccc(C)cc1` [1,4-dimethylbenzene] + CCCCn1cc[n+](C)c1.N#C[S-], for which the activity coefficient is, setting by setting: (298.15 K) 5.51 ± 0.38; (308.15 K) 5.54 ± 0.38; (318.15 K) 5.59 ± 0.38; (328.15 K) 5.6 ± 0.38; (338.15 K) 5.63 ± 0.38; (348.15 K) 5.68 ± 0.39. Besides, the activity coefficient by setting is: (358.15 K) 5.72 ± 0.39; (368.15 K) 5.75 ± 0.39.

With `C=CCCCCC` [1-heptene] + CCCCn1cc[n+](C)c1.N#C[S-], the activity coefficient (298.15 K) was found to be 81.1 ± 5.6; the activity coefficient (308.15 K) was 73.7 ± 5.1; the activity coefficient (318.15 K) was determined as 68.5 ± 4.7; the activity coefficient (328.15 K) amounted to 62.3 ± 4.3; the activity coefficient (338.15 K) worked out at 58 ± 4; the activity coefficient (348.15 K) stood at 54.8 ± 3.8. For the same compound, the activity coefficient (358.15 K) came out at 52.4 ± 3.6.

Take `C#CCCCCC` [1-heptyne] + CCCCn1cc[n+](C)c1.N#C[S-]: the activity coefficient reads like this: (298.15 K) 9.88 ± 0.67; (308.15 K) 9.92 ± 0.68; (318.15 K) 10.1 ± 0.69; (328.15 K) 10.2 ± 0.7; (338.15 K) 10.2 ± 0.7; (348.15 K) 10.3 ± 0.7. Moreover, where the note is “358.15 K”, the activity coefficient is 10.4 ± 0.71.

`C#CCCCC` [1-hexyne] + CCCCn1cc[n+](C)c1.N#C[S-]: the activity coefficient is 6.42 ± 0.44 (298.15 K); 6.45 ± 0.44 (308.15 K); 6.59 ± 0.45 (318.15 K); 6.65 ± 0.45 (328.15 K); 6.76 ± 0.46 (338.15 K); 6.87 ± 0.47 (348.15 K). Further, the activity coefficient (358.15 K) is 6.95 ± 0.47.

`C#CCCCCCC` [1-octyne] + CCCCn1cc[n+](C)c1.N#C[S-]: the activity coefficient reads like this: (298.15 K) 15.2 ± 1; (308.15 K) 15.1 ± 1; (318.15 K) 15.4 ± 1.1; (328.15 K) 15.3 ± 1; (338.15 K) 15.3 ± 1; (348.15 K) 15.3 ± 1. Moreover, the activity coefficient (358.15 K) is 15.3 ± 1.

Regarding `C=CCCC` [1-pentene] + CCCCn1cc[n+](C)c1.N#C[S-], the activity coefficient runs as follows: (298.15 K) 52.3 ± 3.6; (308.15 K) 46.4 ± 3.2; (318.15 K) 41.5 ± 2.8; (328.15 K) 35.4 ± 2.4; (338.15 K) 32.6 ± 2.2; (348.15 K) 30.6 ± 2.1. For the same compound, under “358.15 K”, the activity coefficient came to 27.6 ± 1.9.

For `C#CCCC` [1-pentyne] + CCCCn1cc[n+](C)c1.N#C[S-], the activity coefficient came to 4.6 ± 0.31 (298.15 K); 4.68 ± 0.32 (308.15 K); 4.71 ± 0.32 (318.15 K); 4.73 ± 0.32 (328.15 K); 4.79 ± 0.33 (338.15 K); 4.85 ± 0.33 (348.15 K). In addition, the activity coefficient (358.15 K) was determined as 4.97 ± 0.34.

`COC(C)(C)C` [2-methoxy-2-methylpropane] + CCCCn1cc[n+](C)c1.N#C[S-]: the activity coefficient (298.15 K) amounted to 12.8 ± 0.59; the activity coefficient (308.15 K) was found to be 12.4 ± 0.57; the activity coefficient (318.15 K) is 11.9 ± 0.55; the activity coefficient (328.15 K) is 11.4 ± 0.52; the activity coefficient (338.15 K) is 11.1 ± 0.51; the activity coefficient (348.15 K) was 10.7 ± 0.49. Further, the activity coefficient (358.15 K) was determined as 10.6 ± 0.49.

As for `c1ccccc1` [benzene] + CCCCn1cc[n+](C)c1.N#C[S-], the activity coefficient amounted to 2.13 ± 0.14 (298.15 K); 2.15 ± 0.15 (308.15 K); 2.17 ± 0.15 (318.15 K); 2.18 ± 0.15 (328.15 K); 2.2 ± 0.15 (338.15 K); 2.22 ± 0.15 (348.15 K). The activity coefficient runs as follows: (358.15 K) 2.25 ± 0.15; (368.15 K) 2.27 ± 0.15.

As to `CCCCO` [butan-1-ol] + CCCCn1cc[n+](C)c1.N#C[S-], the activity coefficient was 1.32 ± 0.09 (308.15 K); 1.25 ± 0.08 (318.15 K); 1.21 ± 0.08 (328.15 K); 1.16 ± 0.07 (338.15 K); 1.13 ± 0.07 (348.15 K); 1.1 ± 0.07 (358.15 K). Further, the activity coefficient (368.15 K) came to 1.08 ± 0.07.

For the compound `C1CCCCCC1` [cycloheptane] + CCCCn1cc[n+](C)c1.N#C[S-], the activity coefficient was 56.6 ± 3.9 (298.15 K); 51 ± 3.5 (308.15 K); 46.5 ± 3.2 (318.15 K); 42 ± 2.9 (328.15 K); 38.9 ± 2.7 (338.15 K); 36.1 ± 2.5 (348.15 K). Also, the activity coefficient (358.15 K) amounted to 33.7 ± 2.3.

Regarding `C1CCCCC1` [cyclohexane] + CCCCn1cc[n+](C)c1.N#C[S-], the activity coefficient is, setting by setting: (298.15 K) 62.3 ± 4.3; (308.15 K) 53.5 ± 3.7; (318.15 K) 47.1 ± 3.2; (328.15 K) 41.1 ± 2.8; (338.15 K) 36.8 ± 2.5; (348.15 K) 33.5 ± 2.3. Moreover, the activity coefficient (358.15 K) was determined as 31.1 ± 2.1.

As to `C1CCCCCCC1` [cyclooctane] + CCCCn1cc[n+](C)c1.N#C[S-], the activity coefficient was 70 ± 4.8 (298.15 K); 63.1 ± 4.3 (308.15 K); 57.8 ± 4 (318.15 K); 53.2 ± 3.6 (328.15 K); 48.6 ± 3.3 (338.15 K); 45 ± 3.1 (348.15 K). The activity coefficient (358.15 K) was 41.9 ± 2.9.

With `C1CCCC1` [cyclopentane] + CCCCn1cc[n+](C)c1.N#C[S-], the activity coefficient (298.15 K) amounted to 46.9 ± 3.2; the activity coefficient (308.15 K) was determined as 39.7 ± 2.7; the activity coefficient (318.15 K) worked out at 34.9 ± 2.4; the activity coefficient (328.15 K) stood at 30 ± 2.1; the activity coefficient (338.15 K) came out at 26.8 ± 1.8; the activity coefficient (348.15 K) came to 24.2 ± 1.7. Further, where the note is “358.15 K”, the activity coefficient came to 23.1 ± 1.6.

For the compound `CCCCCCCCCC` [decane] + CCCCn1cc[n+](C)c1.N#C[S-], the activity coefficient (298.15 K) came out at 628 ± 43; the activity coefficient (308.15 K) stood at 581 ± 40; the activity coefficient (318.15 K) amounted to 533 ± 26; the activity coefficient (328.15 K) was 470 ± 23; the activity coefficient (338.15 K) was 426 ± 20; the activity coefficient (348.15 K) amounted to 386 ± 19. Further, where the note is “358.15 K”, the activity coefficient came to 351 ± 17.

Consider `CCO` [ethanol] + CCCCn1cc[n+](C)c1.N#C[S-], for which the activity coefficient (298.15 K) amounted to 0.743 ± 0.049; the activity coefficient (308.15 K) was determined as 0.709 ± 0.047; the activity coefficient (318.15 K) turned out to be 0.69 ± 0.046; the activity coefficient (328.15 K) came to 0.671 ± 0.045; the activity coefficient (338.15 K) turned out to be 0.655 ± 0.045; the activity coefficient (348.15 K) is 0.643 ± 0.044. Further, the activity coefficient (358.15 K) amounted to 0.631 ± 0.044 and the activity coefficient (368.15 K) is 0.623 ± 0.043.

Regarding `CCc1ccccc1` [ethylbenzene] + CCCCn1cc[n+](C)c1.N#C[S-], the activity coefficient reads like this: (298.15 K) 5.86 ± 0.4; (308.15 K) 5.9 ± 0.4; (318.15 K) 5.93 ± 0.4; (328.15 K) 5.86 ± 0.4; (338.15 K) 5.93 ± 0.4; (348.15 K) 5.83 ± 0.4. In addition, the activity coefficient (358.15 K) stood at 5.82 ± 0.4 and the activity coefficient (368.15 K) was 5.81 ± 0.4.

On to `CCCCCCC` [heptane] + CCCCn1cc[n+](C)c1.N#C[S-], for which the activity coefficient runs as follows: (298.15 K) 281 ± 19; (308.15 K) 245 ± 17; (318.15 K) 213 ± 15; (328.15 K) 183 ± 13; (338.15 K) 162 ± 11; (348.15 K) 146 ± 10. For the same compound, for the setting “358.15 K”, the activity coefficient was determined as 132 ± 9.

For the compound `C=CCCCC` [hex-1-ene] + CCCCn1cc[n+](C)c1.N#C[S-], the activity coefficient by setting is: (298.15 K) 61.6 ± 4.2; (308.15 K) 54.8 ± 3.8; (318.15 K) 50.2 ± 3.4; (328.15 K) 44.9 ± 3.1; (338.15 K) 41.4 ± 2.8; (348.15 K) 38.3 ± 2.6. Besides, where the note is “358.15 K”, the activity coefficient stood at 36.4 ± 2.5.

With `CCCCCC` [hexane] + CCCCn1cc[n+](C)c1.N#C[S-], the activity coefficient (298.15 K) turned out to be 226 ± 16; the activity coefficient (308.15 K) was found to be 189 ± 13; the activity coefficient (318.15 K) is 167 ± 11; the activity coefficient (328.15 K) amounted to 143 ± 10; the activity coefficient (338.15 K) was determined as 126 ± 9; the activity coefficient (348.15 K) is 108 ± 7. Further, the activity coefficient (358.15 K) was 100 ± 7.

Take `CO` [methanol] + CCCCn1cc[n+](C)c1.N#C[S-]: the activity coefficient (298.15 K) stood at 0.416 ± 0.035; the activity coefficient (308.15 K) turned out to be 0.396 ± 0.034; the activity coefficient (318.15 K) is 0.396 ± 0.034; the activity coefficient (328.15 K) came out at 0.391 ± 0.034; the activity coefficient (338.15 K) worked out at 0.387 ± 0.034; the activity coefficient (348.15 K) came to 0.386 ± 0.033. The activity coefficient was determined as 0.383 ± 0.033 (358.15 K) and 0.382 ± 0.033 (368.15 K).

With `CCCCCCCCC` [nonane] + CCCCn1cc[n+](C)c1.N#C[S-], the activity coefficient reads like this: (298.15 K) 459 ± 32; (308.15 K) 414 ± 28; (318.15 K) 376 ± 26; (328.15 K) 332 ± 23; (338.15 K) 298 ± 20; (348.15 K) 272 ± 19. Also, where the note is “358.15 K”, the activity coefficient was found to be 252 ± 17.

`C=CCCCCCC` [oct-1-ene] + CCCCn1cc[n+](C)c1.N#C[S-]: the activity coefficient reads like this: (298.15 K) 111 ± 8; (308.15 K) 102 ± 7; (318.15 K) 96.3 ± 6.6; (328.15 K) 88.1 ± 6; (338.15 K) 82.5 ± 5.7; (348.15 K) 77.6 ± 5.3. Besides, the activity coefficient (358.15 K) came to 73.8 ± 5.1.
